Test results as given in patent US9616028B2, “Bilayer tablet formulations” (AstraZeneca AB, priority 2009, dated 2017).

Tested on: patients with inadequately controlled type 2 diabetes
Experimental: The data represent findings from a randomized, double-blind, placebo-controlled study of 546 individuals with type 2 diabetes whose HbA1c was greater than or equal to 7.0 percent and less than or equal to 10 percent at baseline. […] Patients in all arms also received metformin (greater than or equal to 1500 mg/d). […] Exploratory endpoints included body weight decrease of greater than or equal to 5 percent or greater than or equal to 10 percent as well as body weight percent change from baseline.

CCOc1ccc(Cc2cc([C@@H]3O[C@H](CO)[C@@H](O)[C@H](O)[C@H]3O)ccc2Cl)cc1 [dapagliflozin, (2S,3R,4R,5S,6R)-2-(4-chloro-3-(4-ethoxybenzyl)phenyl)-6-(hydroxymethyl)tetrahydro-2H-pyran-3,4,5-triol]
mean reductions in body weight compared to individuals taking placebo (add-on to metformin, 24 weeks): statistically greater | adjusted mean change in FPG from baseline at Week 24 (dapagliflozin 10 mg plus metformin): -23.5 mg/dL | patients who achieved weight losses greater than or equal to 5 percent compared to placebo (exploratory endpoint, add-on to metformin, 24 weeks): more patients
